Target: non-native GAT polypeptide 25-8H7 (glyphosate-N-acetyltransferase), SEQ ID NO: 907 (Bacillus licheniformis, UniProt Q65LG7, E119R/E14D/E65Q/E67K/E68K/G37R/G38S/I132T/I135V/I15L/I19V/I53V/I91V/K101R/K144R/K58Q/L105M/L106I/L145I/L26I/L36T/L97I/M75V/R47G/R92K/T33S/T89S/V114A/Y130F/Y31F/Y45F)
Test: GAT activity with respect to glyphosate, aspartate and serine (Example 29, Table 21)
Details: 25 mM Hepes, pH 6.8, 10% ethylene glycol
Experimental: GAT activity of several GAT polypeptides of the present invention was evaluated with respect to a number of amino acid substrates. The GAT polypeptide, AcCoA and amino substrate were incubated in 25 mM Hepes, pH 6.8, 10% ethylene glycol in the wells of a 96-well polystyrene plate. After 30 minutes, the reactions were stopped by the addition of 30 μl of 10 mM 5,5′-dithiobis-2-nitrobenzoate (DTNB) in 500 mM Tris, pH 7.5. After 2 minutes, absorbance was read at 412 nm in a Spectramax Plus plate reader (Molecular Devices, Sunnyvale, Calif.).

non-native GAT polypeptide 25-8H7 (glyphosate-N-acetyltransferase), SEQ ID NO: 907, sequence (Q65LG7 entry or part of it with the stated changes): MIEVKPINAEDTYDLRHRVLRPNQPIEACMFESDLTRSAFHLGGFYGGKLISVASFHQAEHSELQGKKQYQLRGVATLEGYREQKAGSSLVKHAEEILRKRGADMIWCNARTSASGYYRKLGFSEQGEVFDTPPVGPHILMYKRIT

Question: Which “kcat ± SE” value does the source give for `N[C@@H](CO)C(=O)O` [Serine, L-serine] here?
Answer: 6.47 ± 0.308 s⁻¹

Source: patent US7666644B2, “Glyphosate-N-acetyltransferase (GAT) genes” (Verdia, Inc., priority 2004, dated 2010)
